Some test systems named below: A549 NSCLC; HOP-62 NSCLC; OVCAR-5 ovarian; NCI/ADR-RES ovarian; SK-OV-3 ovarian; SK-MEL-2 melanoma; MCF7 breast; SR leukemia; SF-268 CNS; LOX IMVI melanoma.
What all share (assay): growth of human tumour cells (NCI), 48 h

Several values for one entry are separate records, joined by “and”; a condition that tells them apart may be missing. Equal entries are not always repeated.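 Dose response: 5 concentrations. Exposure: 48 h. Format: 96-well plates. Endpoint: linear interpolation; highest concentration if not reached. At the GI50, growth is halved. TGI marks complete inhibition of growth.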

Consider `COc1cccc(NC(=O)c2sc3nc4c(cc3c2N)CCCC4)c1`, for which the GI50 is 0.58 µM with A549 NSCLC; 0.59 µM in the assay with HOP-62 NSCLC; 3.31 µM with OVCAR-5 ovarian; 0.485 µM with NCI/ADR-RES ovarian; 0.473 µM with SK-OV-3 ovarian; 0.69 µM with SK-MEL-2 melanoma. In addition, the GI50 in the assay on MCF7 breast is 0.314 µM; with SR leukemia, 0.217 µM; in the assay with SF-268 CNS, 0.714 µM; with LOX IMVI melanoma, 0.729 µM. In addition, the TGI was over 100 µM with A549 NSCLC; 18.2 µM with HOP-62 NSCLC; over 100 µM in the assay with OVCAR-5 ovarian; over 100 µM with NCI/ADR-RES ovarian; 29.4 µM in the assay with SK-OV-3 ovarian; 18.6 µM in the assay on SK-MEL-2 melanoma. In addition, the TGI in the assay on MCF7 breast was over 100 µM; in the assay with SR leukemia it was 12.7 µM; in the assay with SF-268 CNS, 37 µM; with LOX IMVI melanoma it was over 100 µM.
`COC(=O)c1cnc(=O)n(C2CC(O)C(CO)O2)c1` (stereo not given): the GI50 in the assay on A549 NSCLC, in the assay with HOP-62 NSCLC, with OVCAR-5 ovarian, with NCI/ADR-RES ovarian, in the assay on SK-OV-3 ovarian and in the assay on SK-MEL-2 melanoma was over 100 µM throughout. Moreover, the GI50 with MCF7 breast, in the assay on SR leukemia, in the assay with SF-268 CNS and in the assay with LOX IMVI melanoma was over 100 µM in each case. Moreover, the TGI in the assay on A549 NSCLC, in the assay on HOP-62 NSCLC, in the assay on OVCAR-5 ovarian, with NCI/ADR-RES ovarian, in the assay on SK-OV-3 ovarian and with SK-MEL-2 melanoma was over 100 µM in each case. The TGI with MCF7 breast, with SR leukemia, in the assay with SF-268 CNS and in the assay on LOX IMVI melanoma was over 100 µM in each case.
`COc1cc(-c2cc(C(=O)N3CCN(C(=O)c4ccccc4NCc4ccco4)CC3)nc3cc(-c4ccccc4)nn23)cc(OC)c1OC`: the GI50 is 2.13 µM with A549 NSCLC; 3.03 µM in the assay on HOP-62 NSCLC; 9.66 µM in the assay with OVCAR-5 ovarian; 1.2 µM with NCI/ADR-RES ovarian; 2.58 µM in the assay with SK-OV-3 ovarian; 2.9 µM in the assay with SK-MEL-2 melanoma. Further, the GI50 in the assay with MCF7 breast was 0.92 µM; in the assay on SR leukemia, 0.523 µM; in the assay with SF-268 CNS, 4.38 µM; in the assay on LOX IMVI melanoma, 4.01 µM. The TGI in the assay on A549 NSCLC was over 100 µM; in the assay with HOP-62 NSCLC, over 100 µM; with OVCAR-5 ovarian, over 100 µM; in the assay on NCI/ADR-RES ovarian, over 31.8 µM; in the assay on SK-OV-3 ovarian, 18.8 µM; with SK-MEL-2 melanoma, over 79.4 µM. Also, the TGI in the assay with MCF7 breast, in the assay on SR leukemia, with SF-268 CNS and in the assay on LOX IMVI melanoma was over 100 µM throughout.
Consider `CC1(C)CC(=O)C2=C(C1)NC(SSC1=C(C#N)C(c3ccccc3)C3=C(CC(C)(C)CC3=O)N1)=C(C#N)C2c1ccccc1` (stereo not given), for which the GI50 with A549 NSCLC was 50.5 µg/mL; in the assay on HOP-62 NSCLC, 72.3 µg/mL; with OVCAR-5 ovarian, 27.8 µg/mL; in the assay on NCI/ADR-RES ovarian, 32.9 µg/mL; in the assay on SK-OV-3 ovarian it was 22.9 µg/mL; in the assay on SK-MEL-2 melanoma, 26.5 µg/mL. Further, the GI50 is 35.6 µg/mL in the assay on MCF7 breast, 26.5 µg/mL with SR leukemia, 28 µg/mL with SF-268 CNS and 27.2 µg/mL in the assay with LOX IMVI melanoma. Also, the TGI in the assay on A549 NSCLC was over 150 µg/mL; with HOP-62 NSCLC, over 150 µg/mL; in the assay with OVCAR-5 ovarian, 50.9 µg/mL; in the assay on NCI/ADR-RES ovarian it was 65.9 µg/mL; with SK-OV-3 ovarian, 59 µg/mL; with SK-MEL-2 melanoma, 49.8 µg/mL. In addition, the TGI in the assay on MCF7 breast was found to be 85.6 µg/mL; in the assay with SR leukemia, 103 µg/mL; in the assay with SF-268 CNS it was 53.7 µg/mL; in the assay with LOX IMVI melanoma, 49.3 µg/mL.
Regarding `COc1cc(CCc2cc(NC(=O)c3ccc(N4C[C@@H](C)N[C@@H](C)C4)cc3)n[nH]2)cc(OC)c1`, the GI50 is > 10 µM and 3.9 µM in the assay on A549 NSCLC; > 10 µM and 7.2 µM in the assay with HOP-62 NSCLC; > 10 µM and 5.01 µM in the assay on OVCAR-5 ovarian; > 10 µM and 17.1 µM with NCI/ADR-RES ovarian; 9.23 µM and 7.04 µM with SK-OV-3 ovarian; 4.17 µM and 4.95 µM in the assay on SK-MEL-2 melanoma. Further, the GI50 with MCF7 breast was 3.29 µM and 2.85 µM; in the assay on SR leukemia, 3.75 µM and 2.34 µM; in the assay with SF-268 CNS, > 10 µM and 5.88 µM; in the assay on LOX IMVI melanoma it was 2.93 µM and 2.66 µM. Besides, the TGI was > 10 µM and 15.3 µM with A549 NSCLC; > 10 µM and 20.3 µM with HOP-62 NSCLC; > 10 µM and 16.9 µM in the assay with OVCAR-5 ovarian; > 10 µM and 36.8 µM with NCI/ADR-RES ovarian; > 10 µM and 19.3 µM in the assay on SK-OV-3 ovarian; > 10 µM and 18.2 µM in the assay on SK-MEL-2 melanoma. Moreover, the TGI with MCF7 breast was > 10 µM and 15.8 µM; in the assay with SR leukemia, > 10 µM and 5.42 µM; in the assay on SF-268 CNS, > 10 µM and 20.7 µM; in the assay on LOX IMVI melanoma it was > 10 µM and 10.3 µM.
For the compound `O=C(CCCc1c[nH]c2ccccc12)NC1CC(=O)c2c(Br)sc(Br)c21` (stereo not given), the GI50 in the assay on A549 NSCLC is 33.4 µM; in the assay with HOP-62 NSCLC it was 18.3 µM; with OVCAR-5 ovarian, 16 µM; with NCI/ADR-RES ovarian, 23.3 µM; in the assay with SK-OV-3 ovarian, 22.7 µM; in the assay on SK-MEL-2 melanoma, 30.5 µM. For the same compound, the GI50 was 10.1 µM in the assay with MCF7 breast, 2.62 µM in the assay with SR leukemia, 10.5 µM with SF-268 CNS and 1.9 µM with LOX IMVI melanoma. Besides, the TGI with A549 NSCLC is over 100 µM; in the assay with HOP-62 NSCLC, 33 µM; with OVCAR-5 ovarian it was 31.7 µM; with NCI/ADR-RES ovarian, 70.3 µM; in the assay on SK-OV-3 ovarian, 55.2 µM; with SK-MEL-2 melanoma, over 100 µM. For the same compound, the TGI turned out to be 29.5 µM in the assay with MCF7 breast, 6.79 µM with SR leukemia, 27.1 µM in the assay on SF-268 CNS and 3.75 µM in the assay with LOX IMVI melanoma.
As to `O/N=C1\CCc2cc(-c3nc(C4CCNCC4)[nH]c3-c3ccncc3)ccc21`, the GI50 is over 25 µM with A549 NSCLC; over 25 µM with HOP-62 NSCLC; over 25 µM with OVCAR-5 ovarian; over 25 µM in the assay with NCI/ADR-RES ovarian; over 25 µM with SK-OV-3 ovarian; 16 µM in the assay with SK-MEL-2 melanoma. Further, the GI50 in the assay with MCF7 breast, with SR leukemia, in the assay on SF-268 CNS and in the assay with LOX IMVI melanoma was over 25 µM throughout. Moreover, the TGI in the assay on A549 NSCLC, with HOP-62 NSCLC, in the assay with OVCAR-5 ovarian, with NCI/ADR-RES ovarian, with SK-OV-3 ovarian and with SK-MEL-2 melanoma was over 25 µM in each case. Besides, the TGI in the assay with MCF7 breast, in the assay on SR leukemia, in the assay on SF-268 CNS and with LOX IMVI melanoma was over 25 µM throughout.

These data come from PubChem BioAssay (NCI).
